Measured values: ChEMBL document CHEMBL4396916, “Novel potent substituted 4-amino-2-thiopyrimidines as dual VEGFR-2 and BRAF kinase inhibitors” (Eur J Med Chem, 2019)

Tests used:
MOLT-4 = experiment: Growth inhibition of human MOLT4 cells at 10 uM incubated for 48 hrs by sulforhodamine B assay relative to control; type: functional; conditions: MOLT-4, 48 h, read-out: GI
K562 = experiment: Growth inhibition of human K562 cells at 10 uM incubated for 48 hrs by sulforhodamine B assay relative to control; type: functional; conditions: K562, 48 h, read-out: GI
LOX IMVI = experiment: Growth inhibition of human LOXIMVI cells at 10 uM incubated for 48 hrs by sulforhodamine B assay relative to control; type: functional; conditions: read-out: GI
CAKI-1 = experiment: Growth inhibition of human Caki1 cells at 10 uM incubated for 48 hrs by sulforhodamine B assay relative to control; type: functional; conditions: CAKI-1, 48 h, read-out: GI
T47D = experiment: Cytotoxicity against human T47D cells expressing wild type BRAF measured after 48 hrs by sulforhodamine B assay; type: functional, cell-based
RPMI-8226 = experiment: Growth inhibition of human RPMI8226 cells at 10 uM incubated for 48 hrs by sulforhodamine B assay relative to control; type: functional; conditions: RPMI-8226, 48 h, read-out: GI
PC-3 = experiment: Growth inhibition of human PC3 cells at 10 uM incubated for 48 hrs by sulforhodamine B assay relative to control; type: functional; conditions: PC-3, 48 h, read-out: GI
[1] = target: RAF proto-oncogene serine/threonine-protein kinase (Homo sapiens, UniProt P04049); experiment: Inhibition of RAF1 (unknown origin)
Sequence of RAF proto-oncogene serine/threonine-protein kinase (P04049 whole entry): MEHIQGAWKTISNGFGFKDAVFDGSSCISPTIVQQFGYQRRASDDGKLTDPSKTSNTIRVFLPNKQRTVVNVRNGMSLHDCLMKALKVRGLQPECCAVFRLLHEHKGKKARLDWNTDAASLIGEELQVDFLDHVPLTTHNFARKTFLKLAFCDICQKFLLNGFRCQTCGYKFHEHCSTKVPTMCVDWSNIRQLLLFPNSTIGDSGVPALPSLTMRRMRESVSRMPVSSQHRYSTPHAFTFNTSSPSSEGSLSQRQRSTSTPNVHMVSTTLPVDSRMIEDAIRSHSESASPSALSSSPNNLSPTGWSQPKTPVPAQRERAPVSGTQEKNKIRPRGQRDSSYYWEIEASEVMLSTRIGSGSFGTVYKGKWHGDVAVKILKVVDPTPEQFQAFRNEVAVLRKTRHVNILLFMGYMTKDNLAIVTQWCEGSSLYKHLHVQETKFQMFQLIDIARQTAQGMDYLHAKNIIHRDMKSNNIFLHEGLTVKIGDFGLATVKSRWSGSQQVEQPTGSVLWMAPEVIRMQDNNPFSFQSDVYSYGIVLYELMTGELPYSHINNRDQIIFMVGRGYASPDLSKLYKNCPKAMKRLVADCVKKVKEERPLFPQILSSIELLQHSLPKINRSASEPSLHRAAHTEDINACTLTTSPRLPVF

SK-MEL-5 = experiment: Growth inhibition of human SK-MEL-5 cells at 10 uM incubated for 48 hrs by sulforhodamine B assay relative to control; type: functional; conditions: SK-MEL-5, 48 h, read-out: GI
SR = experiment: Growth inhibition of human SR cells at 10 uM incubated for 48 hrs by sulforhodamine B assay relative to control; type: functional; conditions: read-out: GI
ACHN = experiment: Growth inhibition of human ACHN cells at 10 uM incubated for 48 hrs by sulforhodamine B assay relative to control; type: functional; conditions: read-out: GI
CCRF-CEM = experiment: Growth inhibition of human CCRF-CEM cells at 10 uM incubated for 48 hrs by sulforhodamine B assay relative to control; type: functional; conditions: read-out: GI
SN12C = experiment: Growth inhibition of human SN12C cells at 10 uM incubated for 48 hrs by sulforhodamine B assay relative to control; type: functional; conditions: read-out: GI
SF-268 = experiment: Growth inhibition of human SF268 cells at 10 uM incubated for 48 hrs by sulforhodamine B assay relative to control; type: functional; conditions: SF-268, 48 h, read-out: GI
NCI-H226 = experiment: Growth inhibition of human NCI-H226 cells at 10 uM incubated for 48 hrs by sulforhodamine B assay relative to control; type: functional; conditions: NCI-H226, 48 h, read-out: GI
MDA-MB-231 = experiment: Growth inhibition of human MDA-MB-231 cells at 10 uM incubated for 48 hrs by sulforhodamine B assay relative to control; type: functional; conditions: MDA-MB-231, 48 h, read-out: GI
HCT-116 = experiment: Growth inhibition of human HCT116 cells at 10 uM incubated for 48 hrs by sulforhodamine B assay relative to control; type: functional; conditions: HCT-116, 48 h, read-out: GI
UACC-257 = experiment: Growth inhibition of human UACC257 cells at 10 uM incubated for 48 hrs by sulforhodamine B assay relative to control; type: functional; conditions: UACC-257, 48 h, read-out: GI
NCI/ADR-RES = experiment: Growth inhibition of human NCI/ADR-RES cells at 10 uM incubated for 48 hrs by sulforhodamine B assay relative to control; type: functional; conditions: read-out: GI
Malme-3M = experiment: Growth inhibition of human MALME-3M cells at 10 uM incubated for 48 hrs by sulforhodamine B assay relative to control; type: functional; conditions: read-out: GI
SK-MEL-28 = experiment: Growth inhibition of human SK-MEL-28 cells at 10 uM incubated for 48 hrs by sulforhodamine B assay relative to control; type: functional; conditions: SK-MEL-28, 48 h, read-out: GI
SK-MEL-2 = experiment: Growth inhibition of human SK-MEL-2 cells at 10 uM incubated for 48 hrs by sulforhodamine B assay relative to control; type: functional; conditions: SK-MEL-2, 48 h, read-out: GI
UO-31 = experiment: Growth inhibition of human UO31 cells at 10 uM incubated for 48 hrs by sulforhodamine B assay relative to control; type: functional; conditions: UO-31, 48 h, read-out: GI
MCF7 = experiment: Growth inhibition of human MCF7 cells at 10 uM incubated for 48 hrs by sulforhodamine B assay relative to control; type: functional; conditions: MCF7, 48 h, read-out: GI
[2] = target: Mast/stem cell growth factor receptor Kit (Homo sapiens, UniProt P10721); experiment: Inhibition of c-kit (unknown origin)
Sequence of Mast/stem cell growth factor receptor Kit (P10721 whole entry): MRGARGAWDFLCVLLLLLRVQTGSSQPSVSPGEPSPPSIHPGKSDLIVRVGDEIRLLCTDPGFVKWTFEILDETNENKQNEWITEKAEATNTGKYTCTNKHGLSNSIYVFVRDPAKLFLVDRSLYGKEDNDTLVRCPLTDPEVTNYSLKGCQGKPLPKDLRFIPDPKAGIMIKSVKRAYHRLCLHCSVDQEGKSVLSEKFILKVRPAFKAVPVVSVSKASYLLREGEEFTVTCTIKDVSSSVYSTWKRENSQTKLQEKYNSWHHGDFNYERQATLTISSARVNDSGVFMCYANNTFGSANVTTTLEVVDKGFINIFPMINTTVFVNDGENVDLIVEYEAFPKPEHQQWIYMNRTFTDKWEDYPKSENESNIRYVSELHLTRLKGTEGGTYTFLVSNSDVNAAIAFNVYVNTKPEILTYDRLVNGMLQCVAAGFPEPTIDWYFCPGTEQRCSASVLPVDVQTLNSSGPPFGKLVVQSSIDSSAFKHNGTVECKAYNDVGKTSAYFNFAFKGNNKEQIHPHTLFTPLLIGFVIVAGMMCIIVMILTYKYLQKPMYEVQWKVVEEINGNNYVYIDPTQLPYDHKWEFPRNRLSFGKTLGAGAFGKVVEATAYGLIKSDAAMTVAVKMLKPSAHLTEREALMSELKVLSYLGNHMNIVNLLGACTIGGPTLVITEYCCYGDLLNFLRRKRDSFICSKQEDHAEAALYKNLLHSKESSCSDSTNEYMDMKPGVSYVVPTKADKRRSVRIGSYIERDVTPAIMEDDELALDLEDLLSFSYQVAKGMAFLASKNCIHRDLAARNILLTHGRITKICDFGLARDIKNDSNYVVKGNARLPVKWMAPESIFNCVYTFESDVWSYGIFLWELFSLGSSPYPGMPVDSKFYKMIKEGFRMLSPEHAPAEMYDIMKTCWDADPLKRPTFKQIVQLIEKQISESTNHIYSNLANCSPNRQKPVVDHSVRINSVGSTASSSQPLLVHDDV

DU-145 = experiment: Growth inhibition of human DU145 cells at 10 uM incubated for 48 hrs by sulforhodamine B assay relative to control; type: functional; conditions: DU-145, 48 h, read-out: GI
[3] = target: Platelet-derived growth factor receptor beta (Homo sapiens, UniProt P09619); experiment: Inhibition of PDGFR beta (unknown origin)
Sequence of Platelet-derived growth factor receptor beta (P09619 whole entry): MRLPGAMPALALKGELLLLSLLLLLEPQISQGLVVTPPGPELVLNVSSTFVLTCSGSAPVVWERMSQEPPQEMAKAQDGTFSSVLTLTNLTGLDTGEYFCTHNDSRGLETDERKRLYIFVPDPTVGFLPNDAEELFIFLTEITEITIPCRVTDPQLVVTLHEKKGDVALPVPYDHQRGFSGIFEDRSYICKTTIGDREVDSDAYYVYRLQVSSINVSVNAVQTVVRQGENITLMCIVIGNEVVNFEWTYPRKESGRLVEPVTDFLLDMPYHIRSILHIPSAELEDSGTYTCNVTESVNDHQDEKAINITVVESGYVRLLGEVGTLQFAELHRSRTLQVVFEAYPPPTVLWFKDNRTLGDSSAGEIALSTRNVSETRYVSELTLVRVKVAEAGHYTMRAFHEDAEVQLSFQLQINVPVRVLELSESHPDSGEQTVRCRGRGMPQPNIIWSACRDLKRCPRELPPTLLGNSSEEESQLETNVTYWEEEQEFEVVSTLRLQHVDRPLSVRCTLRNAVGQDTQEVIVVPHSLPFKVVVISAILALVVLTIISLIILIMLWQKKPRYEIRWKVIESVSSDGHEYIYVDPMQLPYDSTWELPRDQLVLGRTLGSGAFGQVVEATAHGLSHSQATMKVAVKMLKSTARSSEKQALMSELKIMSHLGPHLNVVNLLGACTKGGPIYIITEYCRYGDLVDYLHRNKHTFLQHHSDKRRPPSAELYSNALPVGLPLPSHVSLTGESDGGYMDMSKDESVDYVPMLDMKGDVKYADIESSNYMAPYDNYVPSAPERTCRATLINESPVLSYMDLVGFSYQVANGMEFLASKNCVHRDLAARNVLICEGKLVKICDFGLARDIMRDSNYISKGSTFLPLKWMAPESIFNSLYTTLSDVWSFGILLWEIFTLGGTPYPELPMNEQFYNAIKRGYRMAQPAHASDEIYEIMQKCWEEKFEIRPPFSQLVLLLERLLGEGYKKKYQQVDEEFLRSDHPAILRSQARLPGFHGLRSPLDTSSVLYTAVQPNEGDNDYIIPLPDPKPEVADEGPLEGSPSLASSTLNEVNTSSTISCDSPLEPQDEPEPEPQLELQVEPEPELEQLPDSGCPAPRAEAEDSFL

EKVX = experiment: Growth inhibition of human EKVX cells at 10 uM incubated for 48 hrs by sulforhodamine B assay relative to control; type: functional; conditions: read-out: GI
[4] = target: Vascular endothelial growth factor receptor 2 (Homo sapiens, UniProt P35968); experiment: Inhibition of human N-terminal GST tagged VEGFR-2 expressed in baculovirus infected Sf9 cells using poly (Glu,Tyr) 4:1 as substrate in presence of ATP by Kinase-Glo luminescence assay
Sequence of Vascular endothelial growth factor receptor 2 (P35968 whole entry): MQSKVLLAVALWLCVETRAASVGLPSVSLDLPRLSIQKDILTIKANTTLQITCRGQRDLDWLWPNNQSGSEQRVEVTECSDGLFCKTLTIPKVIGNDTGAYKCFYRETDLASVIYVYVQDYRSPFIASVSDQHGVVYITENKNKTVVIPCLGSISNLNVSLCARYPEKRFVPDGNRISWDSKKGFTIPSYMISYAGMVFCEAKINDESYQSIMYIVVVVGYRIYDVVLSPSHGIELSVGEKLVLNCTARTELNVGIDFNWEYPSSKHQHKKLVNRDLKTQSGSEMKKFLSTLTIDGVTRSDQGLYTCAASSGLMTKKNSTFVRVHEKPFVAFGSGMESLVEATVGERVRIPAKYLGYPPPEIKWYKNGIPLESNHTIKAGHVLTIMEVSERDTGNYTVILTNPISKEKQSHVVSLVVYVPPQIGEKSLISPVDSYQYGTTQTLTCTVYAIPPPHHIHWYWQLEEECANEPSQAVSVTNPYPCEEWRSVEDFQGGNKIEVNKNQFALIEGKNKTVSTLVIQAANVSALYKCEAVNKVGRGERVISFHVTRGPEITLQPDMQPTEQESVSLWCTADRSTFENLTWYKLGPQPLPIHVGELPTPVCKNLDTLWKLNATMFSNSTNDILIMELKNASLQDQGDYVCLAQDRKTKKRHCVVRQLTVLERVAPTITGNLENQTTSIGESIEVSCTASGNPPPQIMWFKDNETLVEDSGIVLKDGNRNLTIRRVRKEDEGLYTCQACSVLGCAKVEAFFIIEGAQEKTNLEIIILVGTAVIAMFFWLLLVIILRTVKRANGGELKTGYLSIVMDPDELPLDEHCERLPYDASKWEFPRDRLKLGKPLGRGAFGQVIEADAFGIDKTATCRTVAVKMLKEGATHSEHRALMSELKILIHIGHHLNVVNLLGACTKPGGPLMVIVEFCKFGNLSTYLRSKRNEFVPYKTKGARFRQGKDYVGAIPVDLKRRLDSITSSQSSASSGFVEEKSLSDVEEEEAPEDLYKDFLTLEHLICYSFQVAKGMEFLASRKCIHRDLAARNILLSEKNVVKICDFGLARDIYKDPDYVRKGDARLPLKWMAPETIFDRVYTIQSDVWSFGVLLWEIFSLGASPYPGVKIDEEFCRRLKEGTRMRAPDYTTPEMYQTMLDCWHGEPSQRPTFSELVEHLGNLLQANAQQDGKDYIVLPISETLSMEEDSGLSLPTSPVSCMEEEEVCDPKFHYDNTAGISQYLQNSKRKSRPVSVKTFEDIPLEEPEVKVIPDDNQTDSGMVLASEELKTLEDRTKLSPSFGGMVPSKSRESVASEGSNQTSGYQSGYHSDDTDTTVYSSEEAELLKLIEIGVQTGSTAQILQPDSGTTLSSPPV

786-0 = experiment: Growth inhibition of human 786-0 cells at 10 uM incubated for 48 hrs by sulforhodamine B assay relative to control; type: functional; conditions: 786-0, 48 h, read-out: GI
SNB-19 = experiment: Growth inhibition of human SNB19 cells at 10 uM incubated for 48 hrs by sulforhodamine B assay relative to control; type: functional; conditions: SNB-19, 48 h, read-out: GI
OVCAR-4 = experiment: Growth inhibition of human OVCAR4 cells at 10 uM incubated for 48 hrs by sulforhodamine B assay relative to control; type: functional; conditions: OVCAR-4, 48 h, read-out: GI
MDA-MB-435 = experiment: Growth inhibition of human MDA-MB-435 cells at 10 uM incubated for 48 hrs by sulforhodamine B assay relative to control; type: functional; conditions: MDA-MB-435, 48 h, read-out: GI
U-251 = experiment: Growth inhibition of human U251 cells at 10 uM incubated for 48 hrs by sulforhodamine B assay relative to control; type: functional; conditions: U-251, 48 h, read-out: GI
OVCAR-3 = experiment: Growth inhibition of human OVCAR3 cells at 10 uM incubated for 48 hrs by sulforhodamine B assay relative to control; type: functional; conditions: OVCAR-3, 48 h, read-out: GI
NCI-H23 = experiment: Growth inhibition of human NCI-H23 cells at 10 uM incubated for 48 hrs by sulforhodamine B assay relative to control; type: functional; conditions: NCI-H23, 48 h, read-out: GI
BT-549 = experiment: Growth inhibition of human BT549 cells at 10 uM incubated for 48 hrs by sulforhodamine B assay relative to control; type: functional; conditions: BT-549, 48 h, read-out: GI

Structure (SMILES)	inhibition of growth at 10 µM (MOLT-4)	inhibition of growth at 10 µM (K562)	inhibition of growth at 10 µM (LOX IMVI)	inhibition of growth at 10 µM (CAKI-1)	IC50 (T47D)	inhibition of growth at 10 µM (RPMI-8226)	inhibition of growth at 10 µM (PC-3)	IC50 [1]	inhibition of growth at 10 µM (SK-MEL-5)	inhibition of growth at 10 µM (SR)	inhibition of growth at 10 µM (ACHN)	inhibition of growth at 10 µM (CCRF-CEM)	inhibition of growth at 10 µM (SN12C)	inhibition of growth at 10 µM (SF-268)	inhibition of growth at 10 µM (NCI-H226)	inhibition of growth at 10 µM (MDA-MB-231)	inhibition of growth at 10 µM (HCT-116)	inhibition of growth at 10 µM (UACC-257)	inhibition of growth at 10 µM (NCI/ADR-RES)	inhibition of growth at 10 µM (Malme-3M)	other results
O=C(CSc1nccc(Nc2ccc(N3CCOCC3)cc2)n1)c1ccc(F)cc1	25%	28%	15%	41%	14400 nM	21%	27%	130 nM	37%	18%	24%	19%	20%	35%	45%	22%	32%	19%	26%	29%	inhibition of growth at 10 µM (SK-MEL-28): 19%; inhibition of growth at 10 µM (SK-MEL-2): 10%; inhibition of growth at 10 µM (UO-31): 27%; inhibition of growth at 10 µM (MCF7): 31%; IC50 [2]: 250 nM; inhibition of growth at 10 µM (DU-145): 16%; IC50 [3]: 150 nM; inhibition of growth at 10 µM (EKVX): 23%; IC50 [4]: 260 nM; inhibition of growth at 10 µM (786-0): 13%; inhibition of growth at 10 µM (SNB-19): 37%; inhibition of growth at 10 µM (OVCAR-4): 57%; inhibition of growth at 10 µM (MDA-MB-435): 16%; inhibition of growth at 10 µM (U-251): 16%; inhibition of growth at 10 µM (OVCAR-3): 18%; inhibition of growth at 10 µM (NCI-H23): 21%; inhibition of growth at 10 µM (BT-549): 31%
CCOC(=O)c1ccc(Nc2ccnc(SCC(=O)c3ccc(C#N)cc3)n2)cc1	84%	49%	20%	43%	2180 nM	80%	60%	410 nM	62%	46%	20%	82%	26%	22%	38%	19%	28%	22%	58%	19%	inhibition of growth at 10 µM (SK-MEL-28): 19%; inhibition of growth at 10 µM (SK-MEL-2): 29%; inhibition of growth at 10 µM (UO-31): 52%; inhibition of growth at 10 µM (MCF7): 33%; IC50 [2]: 5160 nM; inhibition of growth at 10 µM (DU-145): 21%; IC50 [3]: 390 nM; inhibition of growth at 10 µM (EKVX): 26%; IC50 [4]: 170 nM; inhibition of growth at 10 µM (786-0): 22%; inhibition of growth at 10 µM (SNB-19): 10%; inhibition of growth at 10 µM (OVCAR-4): 35%; inhibition of growth at 10 µM (MDA-MB-435): 32%; inhibition of growth at 10 µM (U-251): 15%; inhibition of growth at 10 µM (OVCAR-3): 21%; inhibition of growth at 10 µM (NCI-H23): 20%; inhibition of growth at 10 µM (BT-549): 50%
